Measured values as given in patent US11731961B2, “Phenyl propionic acid derivatives and uses thereof” (ILDONG PHARMACEUTICAL CO., LTD., priority 2016, dated 2023).

biological target: T1, GPR40 (Homo sapiens, UniProt O14842); assay: Cell-Based Aequorin Assay (agonistic activity); details: 1 μM test compound; percentage of the activity of the reference agonist at its EC100 concentration
T1 construct: expressed in transfected cells
Protocol: <In Vitro Assay 1> Cell-Based Aequorin Assay
Recombinant cells grown 18 h prior to the test in media without antibiotics were detached by gentle flushing with PBS-EDTA (5 mM EDTA), recovered by centrifugation and resuspended in “assay buffer” (DMEM/HAM's F12 with HEPES+0.1% BSA fatty-acid free). Cells were incubated at room temperature for at least 4 h with Coelenterazine (Molecular Probes). Dose response curves with the reference compounds were performed before testing the compounds.
For agonistic activity testing, 50 μL of cell suspension was injected on 96-well plates with plated 50 μL of test compounds or reference agonist. The resulting emission of light was recorded using the Hamamatsu Functional Drug Screening System 6000 (FDSS 6000).
To standardize the emission of recorded light (determination of the “100% signal”) across plates and across different experiments, some of the wells contained the reference agonist at its EC100 obtained during the test validation. Agonistic activities of test compounds were expressed as a percentage of the activity of the reference agonist at its EC100 concentration.

T1 sequence (O14842 whole entry): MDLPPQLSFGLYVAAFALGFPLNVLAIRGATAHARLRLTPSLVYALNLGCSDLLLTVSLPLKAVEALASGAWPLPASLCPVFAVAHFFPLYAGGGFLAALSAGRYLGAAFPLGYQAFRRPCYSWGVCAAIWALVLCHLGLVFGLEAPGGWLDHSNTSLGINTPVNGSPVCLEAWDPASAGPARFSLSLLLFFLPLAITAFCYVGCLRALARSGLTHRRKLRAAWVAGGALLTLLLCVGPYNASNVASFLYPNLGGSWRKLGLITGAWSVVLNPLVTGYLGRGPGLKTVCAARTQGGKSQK

| Compound | Agonistic activity (%, 1 μM) |
| --- | --- |
| Cc1cc(OCCCS(C)(=O)=O)cc(C)c1-c1cccc(COc2ccc3c(c2)OC[C@H]3CC(=O)O)c1 [Comparative Example 1, reference compound] | +++ (+++: over 70) |
| CC#C[C@@H](CC(=O)O)c1ccc(O[C@@H]2CCc3c(-c4ccc(OC5CCS(=O)(=O)CC5)nc4)ccc(F)c32)cc1 [Example 1, (S)-3-(4-(((R)-4-(6-((1,1-Dioxidotetrahydro-2H-thiopyran-4-yl)oxy)pyridin-3-VI)-7-fluoro-2,3-dihydro-1H-inden-1-yl)oxy)phenyl)hex-4-ynoic acid] | + (+: under 40) |
| CC#C[C@@H](CC(=O)O)c1ccc(O[C@@H]2CCc3c(-c4ccc(O[C@@H]5CCOC5)nc4)ccc(F)c32)cc1 [Example 5, (S)-3-(4-(((R)-7-Fluoro-4-(6-(((R)-tetrahydrofuran-3-yl)oxy)pyridin-3-yl)-2,3-dihydro-1H-inden-1-yl)oxy)phenyl)hex-4-ynoic acid] | +++ (+++: over 70) |
| CC#C[C@@H](CC(=O)O)c1ccc(O[C@@H]2CCc3c(-c4cncc(O[C@@H]5CCOC5)c4)ccc(F)c32)cc1 [Example 15, (S)-3-(4-(((R)-7-Fluoro-4-(5-(((R)-tetrahydrofuran-3-yl)oxy)pyridin-3-yl)-2,3-dihydro-1H-inden-1-yl)oxy)phenyl)hex-4-ynoic acid] | ++ (++: 40-70) |
| CC#C[C@@H](CC(=O)O)c1ccc(O[C@@H]2CCc3c(-c4cnc(OC5CCOCC5)c(Cl)c4)ccc(F)c32)cc1 [Example 17, (S)-3-(4-(((R)-4-(5-Chloro-6-((tetrahydro-2H-pyran-4-yl)oxy)pyridin-3-yl)-7-fluoro-2,3-dihydro-1H-inden-1-yl)oxy)phenyl)hex-4-ynoic acid] | +++ (+++: over 70) |
| CC#C[C@@H](CC(=O)O)c1ccc(O[C@@H]2CCc3c(-c4cnc(OC5CCOCC5)c(C#N)c4)ccc(F)c32)cc1 [Example 19, (S)-3-(4-(((R)-4-(5-Cyano-6-((tetrahydro-2H-pyran-4-yl)oxy)pyridin-3-yl)-7-fluoro-2,3-dihydro-1H-inden-1-yl)oxy)phenyl)hex-4-ynoic acid] | +++ (+++: over 70) |
| CC#C[C@@H](CC(=O)O)c1ccc(O[C@@H]2CCc3c2ccc(C#N)c3-c2ccc(O[C@@H]3CCOC3)nc2)cc1 [Example 20, (S)-3-(4-(((R)-5-Cyano-4-(6-(((R)-tetrahydrofuran-3-yl)oxy)pyridin-3-yl)-2,3-dihydro-1H-inden-1-yl)oxy)phenyl)hex-4-ynoic acid] | +++ (+++: over 70) |

Other lines, results leading:

| Agonistic activity (%, 1 μM) | Compound |
| --- | --- |
| + (+: under 40) | CC#C[C@@H](CC(=O)O)c1ccc(O[C@@H]2CCc3c(-c4ccc(OCCN5CCS(=O)(=O)CC5)nc4)ccc(F)c32)cc1 [Example 3, (S)-3-(4-(((R)-4-(6-(2-(1,1-Dioxidothiomorpholino)ethoxy)pyridin-3-yl)-7-fluoro-2,3-dihydro-1H-inden-1-yl)oxy)phenyl)hex-4-ynoic acid] |
| +++ (+++: over 70) | CC#C[C@@H](CC(=O)O)c1ccc(O[C@@H]2CCc3c(-c4ccc(OC5CCOCC5)nc4)ccc(F)c32)cc1 [Example 6, (S)-3-(4-(((R)-7-Fluoro-4-(6-((tetrahydro-2H-pyran-4-yl)oxy)pyridin-3-yl)-2,3-dihydro-1H-inden-1-yl)oxy)phenyl)hex-4-ynoic acid] |
| +++ (+++: over 70) | CC#C[C@@H](CC(=O)O)c1ccc(O[C@@H]2CCc3c(-c4ccc(O[C@H]5CCOC5)nc4)ccc(F)c32)cc1 [Example 7, (S)-3-(4-(((R)-7-Fluoro-4-(6-(((S)-tetrahydrofuran-3-yl)oxy)pyridin-3-yl)-2,3-dihydro-1H-inden-1-yl)oxy)phenyl)hex-4-ynoic acid] |
| ++ (++: 40-70) | CC#C[C@@H](CC(=O)O)c1ccc(O[C@@H]2CCc3c(-c4cnc(O[C@@H]5CCOC5)cc4C)ccc(F)c32)cc1 [Example 8, (S)-3-(4-(((R)-7-Fluoro-4-(4-methyl-6-(((R)-tetrahydrofuran-3-yl)oxy)pyridin-3-yl)-2,3-dihydro-1H-inden-1-yl)oxy)phenyl)hex-4-ynoic acid] |
| ++ (++: 40-70) | CC#C[C@@H](CC(=O)O)c1ccc(O[C@@H]2CCc3c(-c4cncc(OC5CCOCC5)c4)ccc(F)c32)cc1 [Example 16, (S)-3-(4-(((R)-7-Fluoro-4-(5-((tetrahydro-2H-pyran-4-yl)oxy)pyridin-3-yl)-2,3-dihydro-1H-inden-1-yl)oxy)phenyl)hex-4-ynoic acid] |
| +++ (+++: over 70) | CC#C[C@@H](CC(=O)O)c1ccc(O[C@@H]2CCc3c(-c4cnc(O[C@@H]5CCOC5)c(C#N)c4)ccc(F)c32)cc1 [Example 18, (S)-3-(4-(((R)-4-(5-Cyano-6-(((R)-tetrahydrofuran-3-yl)oxy)pyridin-3-yl)-7-fluoro-2,3-dihydro-1H-inden-1-yl)oxy)phenyl)hex-4-ynoic acid] |
| +++ (+++: over 70) | CC#C[C@@H](CC(=O)O)c1ccc(O[C@@H]2CCc3c2ccc(F)c3-c2ccc(O[C@@H]3CCOC3)nc2)cc1 [Example 21, (S)-3-(4-(((R)-5-Fluoro-4-(6-(((R)-tetrahydrofuran-3-yl)oxy)pyridin-3-yl)-2,3-dihydro-1H-inden-1-yl)oxy)phenyl)hex-4-ynoic acid] |
| +++ (+++: over 70) | CC#C[C@@H](CC(=O)O)c1ccc(O[C@@H]2CCc3c2ccc(F)c3-c2ccc(OC3CCOCC3)nc2)cc1 [Example 24, (S)-3-(4-(((R)-5-Fluoro-4-(6-((tetrahydro-2H-pyran-4-yl)oxy)pyridin-3-yl)-2,3-dihydro-1H-inden-1-yl)oxy)phenyl)hex-4-ynoic acid] |
